For one test, the system named is Micrococcus luteus. The experiment in a line: Anti-MDR bacterial activity against Micrococcus luteus ML01 assessed as inhibition of bacterial growth incubated for 18 hrs by microplate reader analysis. The format is functional.
The test system of another test is Escherichia coli. The experiment in a line: Anti-MDR bacterial activity against Escherichia coli CCARM 1009 assessed as inhibition of bacterial growth incubated for 18 hrs by microplate reader analysis. The format is functional.
Another test deals with Enterococcus faecalis. The experiment in a line: Anti-MDR bacterial activity against Enterococcus faecalis CCARM 5172 assessed as inhibition of bacterial growth incubated for 18 hrs by microplate reader analysis. The format is functional.
Another test relates to Enterococcus faecium. Nature of the test: Anti-MDR bacterial activity against Enterococcus faecium CCARM 5203 assessed as inhibition of bacterial growth incubated for 18 hrs by microplate reader analysis. The format is functional.
A further test has as its system Pseudomonas aeruginosa. The experiment in a line: Anti-MDR bacterial activity against Pseudomonas aeruginosa 15690 assessed as inhibition of bacterial growth incubated for 18 hrs by microplate reader analysis. The format is functional.
The next test deals with Staphylococcus aureus. Nature of the test: Anti-MDR bacterial activity against Staphylococcus aureus CCARM 3090 assessed as inhibition of bacterial growth incubated for 18 hrs by microplate reader analysis. The format is functional.
A further test concerns Salmonella typhimurium. The experiment in a line: Anti-MDR bacterial activity against Salmonella typhimurium CCARM 8250 assessed as inhibition of bacterial growth incubated for 18 hrs by microplate reader analysis. The format is functional, Salmonella enterica subsp. enterica serovar Typhimurium. The note with it: Salmonella enterica.
The mark [1] stands for this setting: Pseudomonas aeruginosa, 15690, 18 h, read-out: MIC.
Where [2] appears, read: Micrococcus luteus, ML01, 18 h, read-out: MIC.
Setting [3] is: Enterococcus faecalis, CCARM 5172, 18 h, read-out: MIC.
The mark [4] stands for this setting: Enterococcus faecium, CCARM 5203, 18 h, read-out: MIC.
Setting [5] is: Staphylococcus aureus, CCARM 3090, 18 h, read-out: MIC.

Values after ≈ are worked out from the molar mass of the structure shown. Some results are limits rather than exact numbers.

Experimental findings from ChEMBL document CHEMBL4840329, “Antibiotic Dixiamycins from a Cold-Seep-Derived Streptomyces olivaceus” (2021) are described below.

One may read the MIC as the smallest concentration in the dilution series that meets the test's criterion for growth inhibition. Regarding `C[C@@]1(C(=O)O)[C@@H](O)CC[C@]2(C)c3cc4c(cc3CC[C@@H]12)[nH]c1c(-n2c3ccccc3c3cc5c(cc32)CC[C@H]2[C@](C)(C(=O)O)[C@@H](O)CC[C@]52C)cccc14` (stereo in doubt; 1), the minimal inhibitory concentration (MIC) in the test with Micrococcus luteus (18 h) was 6.25 µg/mL (≈ 8.62 µM); in the test on Escherichia coli, over 12.5 µg/mL; with Enterococcus faecalis (18 h) it was 6.25 µg/mL (≈ 8.62 µM); in the test with Enterococcus faecium (18 h), 6.25 µg/mL (≈ 8.62 µM); in the test with Pseudomonas aeruginosa (setting [1]), 1.56 µg/mL (≈ 2.15 µM); in the test with Staphylococcus aureus (18 h), 3.12 µg/mL (≈ 4.3 µM). Also, the MIC in the test with Salmonella typhimurium was over 12.5 µg/mL.
As for `C[C@@]1(C(=O)O)[C@@H](O)CC[C@]2(C)c3cc4c(cc3CC[C@@H]12)[nH]c1ccc(S(=O)(=O)c2c3c(cc5c2[nH]c2ccccc25)[C@@]2(C)CC[C@H](O)[C@@](C)(C(=O)O)[C@@H]2CC3)cc14`, the minimal inhibitory concentration (MIC) in the test with Micrococcus luteus (setting [2]) was over 12.5 µg/mL; in the test with Escherichia coli it was over 12.5 µg/mL; with Enterococcus faecalis (setting [3]), over 12.5 µg/mL; in the test with Enterococcus faecium (setting [4]) it was 6.25 µg/mL (≈ 7.92 µM); in the test with Pseudomonas aeruginosa (setting [1]) it was over 12.5 µg/mL; with Staphylococcus aureus (setting [5]) it was 12.5 µg/mL (≈ 15.8 µM). For the same molecule, the MIC with Salmonella typhimurium was over 12.5 µg/mL.
Take `CN(C)[C@@H]1C(O)=C(C(N)=O)C(=O)[C@@]2(O)C(O)=C3C(=O)c4c(O)cccc4[C@@](C)(O)[C@H]3C[C@@H]12` [TETRACYCLINE]: the MIC with Micrococcus luteus (setting [2]) is 6.25 µg/mL (≈ 14.1 µM); in the test on Escherichia coli, 1.56 µg/mL (≈ 3.51 µM); in the test with Enterococcus faecalis (setting [3]), over 25 µg/mL; with Enterococcus faecium (setting [4]), 1.56 µg/mL (≈ 3.51 µM); in the test on Pseudomonas aeruginosa (setting [1]), 12.5 µg/mL (≈ 28.1 µM); with Staphylococcus aureus (Staphylococcus aureus, CCARM 3090, read-out: MIC), 6.25 µg/mL (≈ 14.1 µM). Also, the MIC in the test on Salmonella typhimurium is over 25 µg/mL.
On to `C[C@@]1(C(=O)O)[C@@H](O)CC[C@]2(C)c3cc4c5ccccc5n(-n5c6ccccc6c6cc7c(cc65)CC[C@H]5[C@](C)(C(=O)O)[C@@H](O)CC[C@]75C)c4cc3CC[C@@H]12` (stereo in doubt; 6), for which the MIC in the test on Micrococcus luteus stood at 6.25 µg/mL (≈ 8.62 µM); with Enterococcus faecalis (18 h), 1.56 µg/mL (≈ 2.15 µM); in the test with Enterococcus faecium (18 h) it was 1.56 µg/mL (≈ 2.15 µM); in the test on Pseudomonas aeruginosa (18 h), 0.78 µg/mL (≈ 1.08 µM); in the test on Staphylococcus aureus (18 h) it was 1.56 µg/mL (≈ 2.15 µM).
As to `C[C@@]1(C(=O)O)[C@@H](O)CC[C@]2(C)c3cc4c5ccccc5n(-c5c6c(cc7c5[nH]c5ccccc57)[C@@]5(C)CC[C@H](O)[C@@](C)(C(=O)O)[C@@H]5CC6)c4cc3CC[C@@H]12` (stereo in doubt; 3), the MIC with Micrococcus luteus (setting [2]) was over 12.5 µg/mL; in the test with Escherichia coli it was over 12.5 µg/mL; in the test with Enterococcus faecalis (setting [3]) it was over 12.5 µg/mL; in the test on Enterococcus faecium (setting [4]), 12.5 µg/mL (≈ 17.2 µM); in the test on Pseudomonas aeruginosa (setting [1]) it was 6.25 µg/mL (≈ 8.62 µM); in the test with Staphylococcus aureus (setting [5]), 6.25 µg/mL (≈ 8.62 µM). Also, the MIC with Salmonella typhimurium was over 12.5 µg/mL.
`C[C@@]1(C(=O)O)[C@@H](O)CC[C@]2(C)c3cc4c(cc3CC[C@@H]12)[nH]c1c(-n2c3ccccc3c3cc5c(cc32)CC[C@H]2[C@](C)(C(=O)O)[C@@H](O)CC[C@]52C)cccc14` (stereo in doubt; 2): the MIC with Micrococcus luteus (18 h) was 3.12 µg/mL (≈ 4.3 µM); in the test with Enterococcus faecalis (18 h), 3.12 µg/mL (≈ 4.3 µM); in the test with Enterococcus faecium (18 h) it was 3.12 µg/mL (≈ 4.3 µM); in the test on Pseudomonas aeruginosa, 1.56 µg/mL (≈ 2.15 µM); in the test with Staphylococcus aureus (18 h) it was 0.78 µg/mL (≈ 1.08 µM).
In the case of `C[C@@]1(C(=O)O)[C@@H](O)CC[C@]2(C)c3cc4c5ccccc5n(-n5c6ccccc6c6cc7c(cc65)CC[C@H]5[C@](C)(C(=O)O)[C@@H](O)CC[C@]75C)c4cc3CC[C@@H]12` (stereo in doubt; 5), the MIC in the test with Micrococcus luteus (setting [2]) was 6.25 µg/mL (≈ 8.62 µM); in the test on Escherichia coli, over 12.5 µg/mL; with Enterococcus faecalis (18 h) it was 6.25 µg/mL (≈ 8.62 µM); with Enterococcus faecium (setting [4]), 3.12 µg/mL (≈ 4.3 µM); in the test with Pseudomonas aeruginosa (18 h), 3.12 µg/mL (≈ 4.3 µM); in the test on Staphylococcus aureus (setting [5]), 3.12 µg/mL (≈ 4.3 µM). Also, the MIC in the test on Salmonella typhimurium is over 12.5 µg/mL.
Take `C[C@@]1(C(=O)O)[C@@H](O)CC[C@]2(C)c3cc4c(cc3CC[C@@H]12)[nH]c1ccc(-n2c3ccccc3c3cc5c(cc32)CC[C@H]2[C@](C)(C(=O)O)[C@@H](O)CC[C@]52C)cc14`: the MIC in the test on Micrococcus luteus (setting [2]) was 3.12 µg/mL (≈ 4.3 µM); in the test on Escherichia coli, over 12.5 µg/mL; in the test with Enterococcus faecalis (setting [3]) it was 3.12 µg/mL (≈ 4.3 µM); in the test on Enterococcus faecium (setting [4]), 1.56 µg/mL (≈ 2.15 µM); in the test on Pseudomonas aeruginosa (setting [1]), 0.78 µg/mL (≈ 1.08 µM); in the test on Staphylococcus aureus (setting [5]) it was 0.78 µg/mL (≈ 1.08 µM). Moreover, in the test on Salmonella typhimurium, the MIC was over 12.5 µg/mL.
With `C[C@@]1(C(=O)O)[C@@H](O)CC[C@]2(C)c3cc4c5ccccc5n(-c5c6c(cc7c5[nH]c5ccccc57)[C@@]5(C)CC[C@H](O)[C@@](C)(C(=O)O)[C@@H]5CC6)c4cc3CC[C@@H]12` (stereo in doubt; 4), the minimal inhibitory concentration (MIC) in the test on Enterococcus faecium (18 h), in the test with Pseudomonas aeruginosa (18 h) and in the test on Staphylococcus aureus (18 h) was over 12.5 µg/mL in each case.
